# Test results reported in patent US20110021579A1, “PERITONEUM PROTECTING AGENT” (TOKAI UNIVERSITY EDUCATIONAL SYSTEM, priority 2005, published 2011).
# Legend:
# [1] = test system: peritoneal membrane of uremic rats; assay: Functional analysis of peritoneal membrane by peritoneal equilibration test (PET); assay type: in vivo, Sprague-Dawley rats
# Text: (§1) Six-week-old male Sprague-Dawley rats weighing 200±3 g (CLER Japan, Inc., Tokyo) were randomly assigned to: sham-operated control rats (Group 1: n=6); uremic rats without peritoneal dialysis (Group 2: n=12); and uremic rats undergoing peritoneal dialysis (n=24). The uremic rats undergoing peritoneal dialysis were further divided into two groups: a group dialyzed with 4.25% Dianeal (registered trademark) (3.86% glucose, 2.5 mEq/CAPD fluid, Baxter Healthcare Corp., Round Lake; IL, USA) (Group 3: n=12); and a group peritoneally dialyzed with 4.25% Dianeal (registered trademark) containing pyridoxamine (Pridorine, Biostratum Inc., NC, USA) at 5 mg/l (Group 4: n=12).
# Uremic models were generated by 5/6 nephrectomy according to previous reports [Lameire N, et al. Kidney Int 54: 2194-2206, 1998; and Kleinknecht C, et al., Kidney Int 47: S51-S54, 1995]. The animals were provided free access to standard experimental rat chow (CE2: CLER Japan, Inc., Tokyo) containing 1.06% calcium, 0.9% phosphate, and 21% proteins, and tap water until the evening prior to slaughter. On the 13th week, Rat-o-Ports with a 13.5 cm catheter (Access Technologies, Norfolk Medical, Skokie, Ill., USA) were implanted into all the rats under anesthetization of isoflurane. The Rat-o-ports were implanted subcutaneously in the neck, after one week of which the peritoneal dialysis with 30 ml of dialysate was initiated twice a day. The PD was continued for 6 weeks [Zweers MM, et al., Nephrol Dial Transplant 16: 651-654, 2001]. Before the initiation of the peritoneal dialysis, four, five, and two rats had died respectively in Group 2, Group 3, and Group 4. […]
# (§2) After 6 weeks of PD, 4.25% Dianeal (registered trademark) was injected from the access port and a peritoneal equilibration test (60 minutes) was performed. […] Mesenterium was excised and assessed by light microscopy or immunohistochemistry.
# (§3) The concentrations of glucose, creatinine, urea, total cholesterol, and triglyceride in plasma and peritoneal dialysate were measured with an autoanalyzer (Hitachi 736-60, Hitachi Co. Ltd., Tokyo).
# The dialysate/plasma (D/P) ratio of Cr (A) and urea (B), and the absorption of glucose from the dialysate (D/D0) (C) were assessed, during a 60-minute exchange with 20 ml of 3.85% glucose dialysate, in control rats (Group 1), uremic rats without PD (Group 2), uremic rats undergoing peritoneal dialysis in the absence of pyridoxamine (Group 3), and uremic rats undergoing peritoneal dialysis in the presence of 5 mg/L pyridoxamine (Group 4). a: p<0.01 vs. Group 1. b: p<0.01 vs. Group 2. c: p<0.01 vs. Group 3. d: p<0.01 vs. Group 4. e: p<0.05 vs. Group 3. f: p<0.05 vs. Group 4.
# [2] = test system: VEGF, FGF-2, vWF, AGEs, and TGF-β1; assay: Immunohistochemical analysis of mesenterium tissue sections; assay type: in vivo, Sprague-Dawley rats; conditions: rats treated with pyridoxamine; prominent in uremic rats with PD, FIG. 8
# Text: as §1
# Uremic models were generated by 5/6 nephrectomy according to previous reports [Lameire N, et al. Kidney Int 54: 2194-2206, 1998; and Kleinknecht C, et al., Kidney Int 47: S51-S54, 1995]. The animals were provided free access to standard experimental rat chow (CE2: CLER Japan, Inc., Tokyo) containing 1.06% calcium, 0.9% phosphate, and 21% proteins, and tap water until the evening prior to slaughter. […]
# (§4) After 6 weeks of PD, 4.25% Dianeal (registered trademark) was injected from the access port and a peritoneal equilibration test (60 minutes) was performed. […] Mesenterium was excised and assessed by light microscopy or immunohistochemistry. […]
# [3] = test system: pentosidine (AGE and carbonyl stress marker); assay: Pentosidine content in peritoneal membrane by HPLC; assay type: in vivo, Sprague-Dawley rats
# Text: as §1
# (§5) Uremic models were generated by 5/6 nephrectomy according to previous reports [Lameire N, et al. Kidney Int 54: 2194-2206, 1998; and Kleinknecht C, et al., Kidney Int 47: S51-S54, 1995]. […]
# as §2
# The pentosidine content in the rat peritoneal membrane was assessed as follows, using HPLC in accordance with an already-reported method [Miyata T, et al., J. Am. […] The effluent was monitored using a fluorescence detector (RF-10A: Shimadzu, Tokyo) at an excitation-emission wavelength of 335/385 nm. […]
# [4] = test system: vessels in the peritoneal tissue; assay: Number of vessels in mesenterium (von Willebrand factor staining, image analysis); assay type: in vivo, Sprague-Dawley rats; conditions: uremic rats with PD plus pyridoxamine; uremia alone 1.87-fold, PD 5.83-fold
# Text: as §1, §5, §4
# The number of vessels was assessed in the sections stained for von Willebrand factor by image analysis using a WinROOF software (Mitani. Corporation, Tokyo). […]
# [5] = Biochemical data and body weight of subtotally nephrectomized uremic rats undergoing peritoneal dialysis; assay type: in vivo; conditions: 6-week PD with pyridoxamine 5 mg/l (Group 4), 21 weeks, mean ± SD
# Text: as §1, §5, §2, §3
# VEGF = VEGF mRNA expression in mesenterium by semiquantitative RT-PCR; assay type: in vivo, Sprague-Dawley rats; conditions: peritoneal tissue, uremic rats with PD plus pyridoxamine, FIG. 7B
# Text: as §1, with “n=12). […]” for “n=12).”
# (§6) Expression of VEGF or FGF2 (mesenterium) mRNA was analyzed by using semiquantitative reverse transcriptase-polymerase chain reaction (RT-PCR). […]
# (§7) β-actin was used as an internal standard of RNA to enable comparison of RNA levels among different samples. […] The PCR products that were resolved by electrophoresis on a 2% agarose gel and stained using ethidium bromide were quantified by measuring the signal intensity with a quantitation program (NIH image software). The mRNA was determined in triplicate and the results were averaged for each experiment. […] The results were averaged and expressed as means±SD. […]
# FGF-2 = FGF-2 mRNA expression in mesenterium by semiquantitative RT-PCR; assay type: in vivo, Sprague-Dawley rats; conditions: peritoneal tissue, uremic rats with PD plus pyridoxamine, FIG. 7C
# Text: as §1, with “n=12). […]” for “n=12).”
# as §6, §7
smiles,measurement,setting,value
Cc1ncc(CO)c(CN)c1O [pyridoxamine],Absorption rate of glucose from the dialysate (D/D0),"[1]; 6-week treatment, pyridoxamine 5 mg/L in dialysate, 60-minute PET, vs Group 3",significantly lowered
same,"Transport rate of small solutes (creatinine, urea) from the plasma (D/P ratio)","[1]; 6-week treatment, pyridoxamine 5 mg/L in dialysate, 60-minute PET, vs uremic PD rats without pyridoxamine (Group 3)",significantly lowered
same,Slope of the regression line between increased permeability for small solutes (creatinine and glucose) and degree of renal failure,"[1]; Group 4, FIGS. 3A and B",dramatically lowered
same,Influence of uremia on membrane permeability,"[1]; pyridoxamine treatment, uremic rats with PD",completely dissipated
same,"VEGF, FGF-2, vWF, AGEs, and TGF-β1 stainings in capillaries of the mesenterium",[2],only faint stainings
same,Slope of the regression line between pentosidine content and renal failure,"[3]; Group 4, FIG. 5B, in words",lowered the slope of the regression line
same,Tissue pentosidine content,"[3]; Group 4 vs Group 3, FIG. 5A",significantly lowered
same,Increase in vessel number (ratio to number of vessels of healthy control animals),[4],2.68 fold
same,Body weight,[5],419 ± 29 g
same,VEGF mRNA expression (ratio over β-actin),VEGF,equivalent levels to those of uremic rats without PD
same,FGF-2 mRNA expression (ratio over β-actin),FGF-2,equivalent levels to those of uremic rats without PD
